What was measured:
[1] = system: Xanthomonas campestris pv. vesicatoria; details: 200 μg/ml; cited from earlier work
[2] = system: X. axonopodis pv. citrumelo; experiment: Dose-response study, 1 minute exposure to peracetic acid dilutions; assay type: cell-based
Experimental: Four strains of X. axonopodis pv. citrumelo were obtained from the Florida Department of Citrus and propagated in Nutrient Broth (Difco) at 22° C. with agitation for 48 to 72 hours. Cells were pelleted at 5,000 rpm/16 minutes, washed with Butterfield's Phosphate (pH 7.2) and resuspended in approximately 10% of the initial culture volume with Butterfield's Phosphate in order to concentrate the cells 10×. This final concentrate was used as the inoculum for the dose-response study. FMC VigorOx Liquid Sanitizer and Disinfectant (5% peracetic acid) and VigorOx SP-15 Antimicrobial Agent (15% peracetic acid) were diluted to final peracetic acid concentrations of 0 ppm (control), 5 ppm, 10 ppm, 20 ppm, 30 ppm, 40 ppm, 50 ppm, 60 ppm, 70 ppm, and 80 ppm with distilled water. Each variable was dispensed in 9.9 ml aliquots in sterile test tubes.
A 0.1 ml aliquot of the inoculum was added to each peracetic acid variable, shaken, and allowed to remain exposed to the solution for 1 minute. […]
Data summaries of trials performed on each product are expressed in the following tables. […] The initial inoculum was determined to contain 2.9×10^11 cfu/ml X. axonopodis, and the initial level of X. axonopodis exposed to each concentration of peracetic acid was determined to be 2.9×10^9 cfu/ml.

In the case of CC(=O)OO [peroxyacetic acid], the level of eradication [1] is given as “acceptable level of eradication comparable to approved chlorine treatments”, the “reduction of X. axonopodis” value ([2]; 30 parts per million peroxyacetic acid, and above) is given as greater than 99.9% and the “significant reduction of X. axonopodis” value ([2]; greater than 10 but less than 20 parts per million peroxyacetic acid) is given as greater than 1 log10 cfu/ml.
